The NIST ThermoML archive (doi:10.1021/je9004992)
± gives the expanded uncertainty stated by the source.

Assay: molar heat capacity at constant pressure
Conditions: Liquid, Small sample (50 mg) DSC

CCCCCCCC[n+]1ccn(C)c1.F[B-](F)(F)F [1-methyl-3-octylimidazolium tetrafluoroborate]
molar heat capacity at constant pressure [J/K/mol]
Conditions	283.15 K	288.15 K	293.15 K	298.15 K	303.15 K	308.15 K	313.15 K	318.15 K	323.15 K
100 kPa	489.23 ± 7.6	493.12 ± 7.6	496.79 ± 7.7	500.26 ± 7.8	503.51 ± 7.8	506.55 ± 7.8	509.38 ± 7.9	512 ± 7.9	514.41 ± 8
2000 kPa	489.23 ± 7.6	493.12 ± 7.6	496.79 ± 7.7	500.25 ± 7.8	503.5 ± 7.8	506.55 ± 7.8	509.38 ± 7.9	512 ± 7.9	514.41 ± 8
4000 kPa	489.23 ± 7.6	493.12 ± 7.6	496.79 ± 7.7	500.25 ± 7.8	503.5 ± 7.8	506.54 ± 7.8	509.37 ± 7.9	512 ± 7.9	514.41 ± 8
6000 kPa	489.24 ± 7.6	493.11 ± 7.6	496.78 ± 7.7	500.24 ± 7.8	503.5 ± 7.8	506.54 ± 7.8	509.37 ± 7.9	512 ± 7.9	514.41 ± 8
8000 kPa	489.24 ± 7.6	493.11 ± 7.6	496.78 ± 7.7	500.24 ± 7.8	503.49 ± 7.8	506.53 ± 7.8	509.37 ± 7.9	512 ± 7.9	514.41 ± 8
10000 kPa	489.24 ± 7.6	493.11 ± 7.6	496.78 ± 7.7	500.24 ± 7.8	503.49 ± 7.8	506.53 ± 7.8	509.37 ± 7.9	511.99 ± 7.9	514.41 ± 8
12000 kPa	489.24 ± 7.6	493.11 ± 7.6	496.78 ± 7.7	500.23 ± 7.8	503.48 ± 7.8	506.53 ± 7.8	509.36 ± 7.9	511.99 ± 7.9	514.42 ± 8
14000 kPa	489.24 ± 7.6	493.11 ± 7.6	496.77 ± 7.7	500.23 ± 7.8	503.48 ± 7.8	506.52 ± 7.8	509.36 ± 7.9	511.99 ± 7.9	514.42 ± 8
20000 kPa	489.24 ± 7.6	493.11 ± 7.6	496.76 ± 7.7	500.22 ± 7.8	503.47 ± 7.8	506.51 ± 7.8	509.35 ± 7.9	511.99 ± 7.9	514.42 ± 8
30000 kPa	489.25 ± 7.6	493.1 ± 7.6	496.75 ± 7.7	500.2 ± 7.8	503.45 ± 7.8	506.49 ± 7.8	509.34 ± 7.9	511.98 ± 7.9	514.43 ± 8
40000 kPa	489.26 ± 7.6	493.09 ± 7.6	496.73 ± 7.7	500.18 ± 7.8	503.42 ± 7.8	506.47 ± 7.8	509.32 ± 7.9	511.98 ± 7.9	514.44 ± 8
50000 kPa	489.26 ± 7.6	493.09 ± 7.6	496.72 ± 7.7	500.16 ± 7.8	503.4 ± 7.8	506.45 ± 7.8	509.31 ± 7.9	511.97 ± 7.9	514.44 ± 8
60000 kPa	489.27 ± 7.6	493.08 ± 7.6	496.7 ± 7.7	500.14 ± 7.8	503.38 ± 7.8	506.43 ± 7.8	509.3 ± 7.9	511.97 ± 7.9	514.45 ± 8
